Measurements from patent US10294269B2, “Dipeptidyl ketoamide compounds and their use for the treatment and/or prevention of fat accumulation” (LANDSTEINER GENMED, S.L., priority 2014, dated 2019).

Each compound was assayed on 3T3-L1 pre-adipocyte cell line (assay: Mouse 3T3-L1 pre-adipocyte cells differentiation assay (Nile Red lipid fluorescence)). Details: % of adipogenesis inhibition; compound at 25 μM in differentiation medium (2 days) and insulin medium (2 days); 3T3-L1 cells.
Format: cell-based
Procedure: Mouse 3T3-L1 Pre-Adipocyte Cells Differentiation Assay
Cell Culture and Treatment
Mouse (Mus musculus) 3T3-L1 pre-adipocyte cell line was purchased at ATCC.
Induction of adipocyte differentiation was performed according to Choi K C et al “The role of ghrelin and growth hormone secretagogues receptor on rat adipogenesis” Endocrinol 144: 754-759, 2003 with some modifications.
Briefly, 3T3-L1 pre-adipocytes were seeded in 24 well culture plates at a density of 3×10^4 cells/well in growth medium (DMEM containing 4.5 g/L glucose, 1 mM sodium pyruvate, 2 mM L-glutamine, 100 μg/mL streptomycin/penicilline, 25 mM HEPES and 10% calf serum (heat inactivated)). The resulting solution is used as a blank in the measure of fluorescence described below.
Cells were incubated at 37° C., 95% humidity and 10% CO2. Two days after reaching confluence (ninth day) growth medium was changed to differentiation medium (DMEM containing 4.5 g/L glucose, 2 mM L-glutamine, 100 μg/mL streptomycin/penicilline, 25 mM HEPES, 10% FBS (heat inactivated), 1 mM sodium pyruvate, 0.5 mM 3-isobutyl-1-methylxanthine, 0.25 μM dexamethasone, and 5 μg/mL insulin). After 48 h, the medium was replaced by insulin medium (DMEM containing 4.5 g/L glucose, 1 mM sodium pyruvate, 2 mM L-glutamine, 100 μg/mL streptomycin/penicillin, 25 mM HEPES, 10% FBS (inactivated) and 5 μg/mL insulin) for another 48 hours, and then incubated in 10% FBS/DMEM (same as insulin medium without insulin) for 4 days up to their complete differentiation.
The compounds to be tested were added at the 25 μM concentration to the differentiation medium (2 days) and to the insulin medium (2 days).
After incubation, the intracellular stored lipids were quantified by measuring the fluorescence after staining the lipids with the fluorescent dye Nile Red (9-diethylamino-5-benzo[α]phenoxazinone).
To carry out said lipid measurement, cells were lysed in hypotonic buffer (1 mM Tris-HCl pH=7.5) containing 2 μg/ml of Nile Red (9-diethylamino-5-benzo[t]phenoxazinone) for 15 min at 37° C.
Lysed cells were homogenized and TAG content was determined by monitoring Nile Red fluorescence in a laser spectral fluorometer. Excitation 522 nm; Emission 574 nm.
For each compound to be tested the following fluorescence measures were recorded: • FC: Fluorescence of a sample of lysed cells incubated in the presence of the compound in both the differentiation medium and in the insulin medium. • FB: Fluorescence of a blank sample of sample of pre-adipocytes in growth medium. • FNC: Fluorescence of a sample of lysed cells incubated with the differentiation medium and insulin medium not comprising any additional compound.
The inhibition of adipogenesis in the presence of the tested compounds is calculated from the following equation: % of adipogenesis inhibition=100−[100×((FC−FB)/(FNC−FB))]
% of adipogenesis inhibition (reflecting the activity against 3T3-L1 cell differentiation into adipocytes) was determined for each compound, and the effect at the […] has been chosen as the most representative value as to be shown in the structure-activity table.

Question: With “N-[(1S)-1-(1-benzyl-2-tert-butylcarbamoyl-2-oxo-ethylcarbamoyl)-3-methyl-butyl]-benzamide [Example 52]” as the compound, how does the Adipogenesis inhibition score read?
Answer: ++ (Inhibition between >15% and 30%)

Same assay, conditions: Mus musculus, 48 h; % of adipogenesis inhibition; compound at 25 μM in differentiation medium (2 days) and insulin medium (2 days); 3T3-L1 cells; read-out: Adipogenesis inhibition score

Question: For `CCNC(=O)C(=O)C(Cc1ccccc1)NC(=O)[C@H](CC(C)C)NC(=O)c1ccccc1` (stereo partly drawn) [Example 1, N-((2S)-1-((4-(ethylamino)-3,4-dioxo-1-phenylbutan-2-yl)amino)-4-methyl-1-oxopentan-2-yl)benzamide], which inhibition at 25 µM is on record?
Answer: 15 to 30%

Question: `CCNC(=O)C(=O)C(Cc1ccccc1)NC(=O)[C@H](CC(C)C)NC(=O)c1ccccn1` (stereo partly drawn) [Example 4, N-((2S)-1-((4-(ethylamino)-3,4-dioxo-1-phenylbutan-2-yl)amino)-4-methyl-1-oxopentan-2-yl)picolinamide] was tested. Which inhibition at 25 µM did it give?
Answer: 1 to 15%

Question: Which inhibition at 25 µM does the source give for `CCNC(=O)C(=O)C(Cc1ccccc1)NC(=O)[C@H](CC(C)C)NC(=O)c1cncnc1` (stereo partly drawn) [Example 6, N-((2S)-1-((4-(ethylamino)-3,4-dioxo-1-phenylbutan-2-yl)amino)-4-methyl-1-oxopentan-2-yl)pyrimidine-5-carboxamide] here?
Answer: 15 to 30%

Question: With `COc1cccc(C(=O)N[C@@H](CC(C)C)C(=O)NC(Cc2ccccc2)C(=O)C(=O)NC(C)(C)C)c1` (stereo partly drawn) [Example 7, N-((2S)-1-((4-(tert-butylamino)-3,4-dioxo-1-phenylbutan-2-yl)amino)-4-methyl-1-oxopentan-2-yl)-3-methoxybenzamide] as the compound, how does the inhibition at 25 µM read?
Answer: 15 to 30%

Question: With `CC(C)C[C@H](NC(=O)c1cncnc1)C(=O)NC(Cc1ccccc1)C(=O)C(=O)NC(C)(C)C` (stereo partly drawn) [Example 8, N-((2S)-1-((4-(tert-butylamino)-3,4-dioxo-1-phenylbutan-2-yl)amino)-4-methyl-1-oxopentan-2-yl)pyrimidine-5-carboxamide] as the compound, how does the inhibition at 25 µM read?
Answer: 1 to 15%

Question: How did the inhibition at 25 µM turn out when `CC(C)C[C@H](NC(=O)c1cccc2cnccc12)C(=O)NC(Cc1ccccc1)C(=O)C(=O)NC(C)(C)C` (stereo partly drawn) [Example 11, N-((2S)-1-((4-(tert-butylamino)-3,4-dioxo-1-phenylbutan-2-yl)amino)-4-methyl-1-oxopentan-2-yl)isoquinoline-5-carboxamide] was run?
Answer: 30 to 80%

Question: `CC(C)C[C@H](NC(=O)c1cnccn1)C(=O)NC(Cc1ccccc1)C(=O)C(=O)NC(C)(C)C` (stereo partly drawn) [Example 15, N-((2S)-1-((4-(tert-butylamino)-3,4-dioxo-1-phenylbutan-2-yl)amino)-4-methyl-1-oxopentan-2-yl)pyrazine-2-carboxamide] was tested. Which inhibition at 25 µM did it give?
Answer: 1 to 15%

Question: Which inhibition at 25 µM does the source give for `CC(C)C[C@H](NC(=O)c1ccccc1)C(=O)NC(Cc1ccccc1)C(=O)C(=O)NC(C)(C)C` (stereo partly drawn) [Example 18, N-((2S)-1-((4-(tert-butylamino)-3,4-dioxo-1-phenylbutan-2-yl)amino)-4-methyl-1-oxopentan-2-yl)benzamide] here?
Answer: 15 to 30%

Question: For `CC(C)C[C@H](NC(=O)c1ccccc1)C(=O)NC(Cc1ccccc1)C(=O)C(=O)NC1CC1` (stereo partly drawn) [Example 20, N-((2S)-1-((4-(cyclopropylamino)-3,4-dioxo-1-phenylbutan-2-yl)amino)-4-methyl-1-oxopentan-2-yl)benzamide], which inhibition at 25 µM is on record?
Answer: 30 to 80%

Question: `CC(C)C[C@H](NC(=O)c1cccnc1)C(=O)NC(Cc1ccccc1)C(=O)C(=O)NC(C)(C)C` (stereo partly drawn) [Example 21, N-((2S)-1-((4-(tert-butylamino)-3,4-dioxo-1-phenylbutan-2-yl)amino)-4-methyl-1-oxopentan-2-yl)nicotinamide] was tested. Which inhibition at 25 µM did it give?
Answer: 1 to 15%

Question: Which inhibition at 25 µM does the source give for `Cc1ccc(C(=O)N[C@@H](CC(C)C)C(=O)NC(Cc2ccccc2)C(=O)C(=O)NC(C)(C)C)cn1` (stereo partly drawn) [Example 25, N-((2S)-1-((4-(tert-butylamino)-3,4-dioxo-1-phenylbutan-2-yl)amino)-4-methyl-1-oxopentan-2-yl)-6-methylnicotinamide] here?
Answer: 30 to 80%

Question: How did the inhibition at 25 µM turn out when `CC(C)C[C@H](NC(=O)c1cncc(F)c1)C(=O)NC(Cc1ccccc1)C(=O)C(=O)NC(C)(C)C` (stereo partly drawn) [Example 31, N-((2S)-1-(4-(tert-butylamino)-3,4-dioxo-1-phenylbutan-2-ylamino)-4-methyl-1-oxopentan-2-yl)-5-fluoronicotinamide] was run?
Answer: 1 to 15%

Question: For `CC(C)C[C@H](NC(=O)c1ccc(C(F)(F)F)nc1)C(=O)NC(Cc1ccccc1)C(=O)C(=O)NC(C)(C)C` (stereo partly drawn) [Example 32, N-((2S)-1-(4-(tert-butylamino)-3,4-dioxo-1-phenylbutan-2-ylamino)-4-methyl-1-oxopentan-2-yl)-6-(trifluoromethyl)nicotinamide], which inhibition at 25 µM is on record?
Answer: 30 to 80%

Question: `CC(C)C[C@H](NC(=O)c1cnc2ccccc2c1)C(=O)NC(Cc1ccccc1)C(=O)C(=O)NC(C)(C)C` (stereo partly drawn) [Example 54, Quinoline-3-carboxylic acid [(1S)-1-(1-benzyl-2-tert-butylcarbamoyl-2-oxo-ethylcarbamoyl)-3-methyl-butyl]-amide] was tested. Which inhibition at 25 µM did it give?
Answer: 30 to 80%

Question: How did the inhibition at 25 µM turn out when `CC(C)C[C@H](NC(=O)c1cccnn1)C(=O)NC(Cc1ccccc1)C(=O)C(=O)NC(C)(C)C` (stereo partly drawn) [Example 55, Pyridazine-3-carboxylic acid [(1S)-1-(1-benzyl-2-tert-butylcarbamoyl-2-oxo-ethylcarbamoyl)-3-methyl-butyl]-amide] was run?
Answer: 15 to 30%

Question: With `Cc1ccccc1C(=O)N[C@@H](CC(C)C)C(=O)NC(Cc1ccccc1)C(=O)C(=O)NC(C)(C)C` (stereo partly drawn) [Example 56, N-[(1S)-1-(1-benzyl-2-tert-butylcarbamoyl-2-oxo-ethylcarbamoyl)-3-methyl-butyl]-2-methyl-benzamide] as the compound, how does the inhibition at 25 µM read?
Answer: 15 to 30%

Question: Which inhibition at 25 µM does the source give for `CC(C)C[C@H](NC(=O)C1CCOCC1)C(=O)NC(Cc1ccccc1)C(=O)C(=O)NC(C)(C)C` (stereo partly drawn) [Example 57, Tetrahydro-pyran-4-carboxylic acid [(1S)-1-(1-benzyl-2-tert-butylcarbamoyl-2-oxo-ethylcarbamoyl)-3-methyl-butyl]-amide] here?
Answer: 15 to 30%

Question: How did the inhibition at 25 µM turn out when `CC(C)C[C@H](NC(=O)c1ccccc1)C(=O)NC(Cc1ccccc1)C(=O)C(=O)NC1CCCCC1` (stereo partly drawn) [Example 58, N-[(1S)-1-(1-benzyl-2-cyclohexylcarbamoyl-2-oxo-ethylcarbamoyl)-3-methyl-butyl]-benzamide] was run?
Answer: 30 to 80%

Question: With `CC(C)C[C@H](NC(=O)c1ccccc1)C(=O)NC(Cc1ccccc1)C(=O)C(=O)NCc1ccccc1` (stereo partly drawn) [Example 59, N-[(1S)-1-(1-benzyl-2-benzylcarbamoyl-2-oxo-ethylcarbamoyl)-3-methyl-butyl]-benzamide] as the compound, how does the inhibition at 25 µM read?
Answer: 30 to 80%

Question: `CC(C)C[C@H](NC(=O)c1cnccc1Cl)C(=O)NC(Cc1ccccc1)C(=O)C(=O)NC(C)(C)C` (stereo partly drawn) [Example 60, N-[(1S)-1-(1-benzyl-2-tert-butylcarbamoyl-2-oxo-ethylcarbamoyl)-3-methyl-butyl]-4-chloro-nicotinamide] was tested. Which inhibition at 25 µM did it give?
Answer: 30 to 80%

Question: With `CONC(=O)C(=O)C(Cc1ccccc1)NC(=O)[C@H](CC(C)C)NC(=O)c1cccc(OC)c1` (stereo partly drawn) [Example 61, N-[(1S)-1-(1-benzyl-2-methoxycarbamoyl-2-oxo-ethylcarbamoyl)-3-methyl-butyl]-3-methoxy-benzamide] as the compound, how does the inhibition at 25 µM read?
Answer: 30 to 80%

Question: Which inhibition at 25 µM does the source give for `CONC(=O)C(=O)C(Cc1ccccc1)NC(=O)[C@H](CC(C)C)NC(=O)c1ccc2c(c1)OCO2` (stereo partly drawn) [Example 62, Benzo[1,3]dioxole-5-carboxylic acid [(1S)-1-(1-benzyl-2-methoxycarbamoyl-2-oxo-ethylcarbamoyl)-3-methyl-butyl]-amide] here?
Answer: 30 to 80%

Question: Which inhibition at 25 µM does the source give for `CCNC(=O)C(=O)C(Cc1ccccc1)NC(=O)[C@H](CC(C)C)NC(=O)OC(C)(C)C` (stereo partly drawn) [Example 64, tert-butyl (2S)-1-(4-(ethylamino)-3,4-dioxo-1-phenylbutan-2-ylamino)-4-methyl-1-oxopentan-2-ylcarbamate] here?
Answer: 30 to 80%

Question: With `CCNC(=O)C(=O)C(Cc1ccccc1)NC(=O)[C@H](CC(C)C)NC(=O)NC(C)(C)C` (stereo partly drawn) [Example 65, (2S)-2-(3-tert-butylureido)-N-(4-(ethylamino)-3,4-dioxo-1-phenylbutan-2-yl)-4-methylpentanamide] as the compound, how does the inhibition at 25 µM read?
Answer: 15 to 30%

Question: Which inhibition at 25 µM does the source give for `COCCOC(=O)N[C@@H](CC(C)C)C(=O)NC(Cc1ccccc1)C(=O)C(=O)NOC` (stereo partly drawn) [Example 67, [(1S)-1-(1-benzyl-2-methoxycarbamoyl-2-oxo-ethylcarbamoyl)-3-methyl-butyl]-carbamic acid 2-methoxy-ethyl ester] here?
Answer: 15 to 30%
